Like-named read-outs stand apart in the source and are kept apart here.

This experiment addresses T1, Human HDAC6 (Homo sapiens, UniProt Q9UBN7).
T1 construct: Full length with N-terminal GST tag, MW=159 kDa; GST (N); host or cells: Sf9 insect cells (baculovirus)
T1 sequence (Q9UBN7 1-1215): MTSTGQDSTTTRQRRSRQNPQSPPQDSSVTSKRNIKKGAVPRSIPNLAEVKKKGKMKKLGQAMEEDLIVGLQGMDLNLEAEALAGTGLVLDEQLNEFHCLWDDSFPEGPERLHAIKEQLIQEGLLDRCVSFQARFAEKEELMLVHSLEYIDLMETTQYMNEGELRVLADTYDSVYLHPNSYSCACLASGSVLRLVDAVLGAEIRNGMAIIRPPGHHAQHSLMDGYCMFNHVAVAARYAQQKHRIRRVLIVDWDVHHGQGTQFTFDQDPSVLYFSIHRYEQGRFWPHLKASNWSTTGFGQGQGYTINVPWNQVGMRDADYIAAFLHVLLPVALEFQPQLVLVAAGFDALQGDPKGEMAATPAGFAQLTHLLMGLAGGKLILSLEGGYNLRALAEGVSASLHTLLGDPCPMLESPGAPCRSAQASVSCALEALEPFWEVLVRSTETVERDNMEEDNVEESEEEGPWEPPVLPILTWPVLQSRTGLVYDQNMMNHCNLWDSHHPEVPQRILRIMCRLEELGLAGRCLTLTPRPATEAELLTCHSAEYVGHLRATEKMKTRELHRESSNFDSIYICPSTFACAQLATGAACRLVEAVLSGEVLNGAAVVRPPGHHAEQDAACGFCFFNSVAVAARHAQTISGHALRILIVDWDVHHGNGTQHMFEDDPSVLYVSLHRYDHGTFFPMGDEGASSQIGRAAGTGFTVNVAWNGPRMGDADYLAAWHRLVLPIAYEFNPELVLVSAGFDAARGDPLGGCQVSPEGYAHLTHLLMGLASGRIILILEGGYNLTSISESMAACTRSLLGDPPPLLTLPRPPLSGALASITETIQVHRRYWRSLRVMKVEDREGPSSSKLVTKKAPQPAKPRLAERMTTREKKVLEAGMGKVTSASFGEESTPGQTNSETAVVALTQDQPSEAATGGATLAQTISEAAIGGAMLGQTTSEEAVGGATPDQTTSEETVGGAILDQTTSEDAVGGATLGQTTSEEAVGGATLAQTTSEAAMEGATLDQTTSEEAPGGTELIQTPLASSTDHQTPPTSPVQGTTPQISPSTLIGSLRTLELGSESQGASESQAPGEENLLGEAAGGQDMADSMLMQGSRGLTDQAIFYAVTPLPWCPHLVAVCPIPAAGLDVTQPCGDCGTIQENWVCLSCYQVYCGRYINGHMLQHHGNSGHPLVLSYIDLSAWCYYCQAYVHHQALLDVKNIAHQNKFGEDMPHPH
The experiment is described as follows: HDAC6 inhibition assay (fluorogenic p53 peptide substrate). Format: biochemical. The procedure:
The HDAC1, 2, 4, 5, 6, 7, 8, 9, 10, and 11 assays used isolated recombinant human protein; HDAC3/NcoR2 complex was used for the HDAC3 assay. Substrate for HDAC1, 2, 3, 6, 10, and 11 assays is a fluorogenic peptide from p53 residues 379-382 (RHKKAc); substrate for HDAC8 is fluorogenic diacyl peptide based on residues 379-382 of p53 (RHKAcKAc). Acetyl-Lys(trifluoroacetyl)-AMC substrate was used for HDAC4, 5, 7, and 9 assays. Compounds were dissolved in DMSO and tested in 10-dose IC50 mode with 3-fold serial dilution starting at 30 μM. Control Compound Trichostatin A (TSA) was tested in a 10-dose IC50 with 3-fold serial dilution starting at 5 μM. IC50 values were extracted by curve-fitting the dose/response slopes. Assays were performed in duplicate and IC50 values are an average of data from both experiments.
Human HDAC6 (GenBank Accession No. BC069243): Full length with N-terminal GST tag, MW=159 kDa, expressed by baculovirus expression system in Sf9 cells. Enzyme is in 50 mM Tris-HCl, pH 8.0, 138 mM NaCl, 20 mM glutathione, and 10% glycerol, and stable for >6 months at −80° C. Purity is >90% by SDS-PAGE. Specific Activity is 50 U/μg, where one U=1 pmol/min under assay condition of 25 mM Tris/Cl, pH8.0, 137 mM NaCl, 2.7 mM KCl, 1 mM MgCl2, and 0.1 mg/ml BSA, 30 μM HDAC substrate, and 5 ng/μl HDAC6, incubation for 60 min at 30° C.
Substrate for HDAC1 and HDAC6: Acetylated peptide substrate for HDAC, based on residues 379-382 of p53 (Arg-His-Lys-Lys(Ac)), a site of regulatory acetylation by the p300 and CBP acetyltransferases (lysines 381, 382)1-6, is the best for HDAC from among a panel of substrates patterned on p53, histone H3 and histone H4 acetylation sites7.
Reaction Buffer: 50 mM Tris-HCl, pH 8.0, 137 mM NaCl, 2.7 mM KCl, 1 mM MgCl2, 1 mg/ml BSA.
HDAC6: 12.6 nM HDAC6 and 50 μM HDAC substrate are in the reaction buffer and 1% DMSO final. Incubate for 2 hours at 30° C.
All IC50 values are automatically calculated using the GraphPad Prism version 5 and Equation of Sigmoidal dose-response (variable slope): Y=Bottom+(Top−Bottom)/(1+10^((Log EC50−X)*HillSlope)), where X is the logarithm of concentration, Y is the response, Y starts at Bottom and goes to Top with a sigmoid shape. In most cases, “Bottom” is set 0, and “Top” is set “less than 120%”. This is identical to the “four parameter logistic equation”. IC50 curves also are drawn using the GraphPad Prism, and IC50 values and Hill slopes are provided.
HDAC Activity Assays: HDAC assay is performed using fluorescently-labeled acetylated substrate, which comprises an acetylated lysine side chain. After incubation with HDAC, deacetylation of the substrate sensitizes the substrate such that, in a second step, treatment with the detection enzyme produces a fluorophore. HDACs 1 and 6 were expressed as full length fusion proteins. Purified proteins were incubated with 50 μM fluorescently-labeled acetylated peptide substrate and test compound for 2 hours at RT in HDAC assay buffer containing 50 mM Tris-HCl (pH 8.0), 137 mM NaCl, 2.7 mM KCl, 1 mM MgCl2, 1% DMSO, and 1% BSA.
Reactions were terminated by the addition of the Developer after 2 hours, and the development of fluorescence signal, which was relative to the amount of deacetylated peptide, was monitored by time-course measurement of EnVision (PerkinElmer). The HDAC activity was estimated from the slope of time-course measurement of the fluorescence intensity. The slope of no-enzyme control (substrate alone) was served as background, and % Enzyme activity was calculated using background-subtracted slope of no inhibitor control (DMSO) as 100% activity.

[1] abbreviates: Table 1, performed by Reaction Biology Corporation, read-out: HDAC isoform IC50 (nM) 6.
Setting [2] is: Table 2 isoform selectivity, read-out: HDAC Inhibition (IC50 uM) isoform 6.

For `O=C(NO)c1ccc(CN2C(=O)C(F)(F)c3ccccc32)cc1` [II-ING-66, 4-((3,3-Difluoro-2-oxoindolin-1-yl)methyl)-N-hydroxybenzamide], the IC50 under setting [1] was 4.1 nM.

In the case of `O=C(NO)c1ccc(CN2CCc3cc(F)ccc32)cc1` [II-ING-42, 4-((5-Fluoroindolin-1-yl)methyl)-N-hydroxybenzamide], under setting [1], the IC50 was found to be 13.1 nM.

For the compound `O=C(NO)c1ccc(CN2CCc3ccccc32)cc1` [II-ING-44, N-Hydroxy-4-(indolin-1-ylmethyl)benzamide], the 50% inhibitory concentration (IC50) under setting [1] is 26.8 nM.

With `O=C(NO)c1ccc(CN2CCc3ccc(Cl)cc32)cc1` [II-ING-6, 4-((6-Chloroindolin-1-yl)methyl)-N-hydroxybenzamide], the IC50 runs as follows: under setting [1], 11.5 nM; under setting [2], 9 nM.

As for `COc1ccc2c(c1)CCN2Cc1ccc(C(=O)NO)cc1` [II-ING-49, N-Hydroxy-4-((5-methoxyindolin-1-yl)methyl)benzamide], under setting [1], the half-inhibitory concentration (IC50) turned out to be 11.5 nM.

For `Cn1c(NCc2ccc(C(=O)NO)cc2)nc2ccccc21` [II-ING-13, N-Hydroxy-4-(((1-methyl-1H-benzo[d]imidazol-2-yl)amino)methyl)benzamide], the IC50 under setting [1] amounted to 11 nM and the concentration for half-maximal inhibition (IC50) under setting [2] amounted to 9 nM.

As to `O=C(NO)c1ccc(CN2CCc3cc(Cl)ccc32)cc1` [II-ING-39, 4-((5-Chloroindolin-1-yl)methyl)-N-hydroxybenzamide], the IC50 under setting [1] turned out to be 21.5 nM.

Regarding `O=C(NO)c1ccc(CN2CCc3ccc(F)cc32)cc1` [II-ING-41, 4-((6-Fluoroindolin-1-yl)methyl)-N-hydroxybenzamide], the IC50 under setting [1] amounted to 16.7 nM and the IC50 under setting [2] amounted to 4 nM.

These data come from patent US10934255B2, “Nrf and HIF activators/HDAC inhibitors and therapeutic methods using the same” (THE BOARD OF TRUSTEES OF THE UNIVERSITY OF ILLINOIS, priority 2017, dated 2021).
